pKi: −log10 of the molar value.
Tests used:
[1] = organism: Homo sapiens; experiment: Selectivity ratio of Ki for Homo sapiens (human) recombinant GABAA alpha1beta3gamma2 receptor to Ki for Homo sapiens (human) recombinant GABAA alpha5beta3gamma2 receptor
[2] = molecular target: GABA-A receptor; alpha-6/beta-3/gamma-2 (Homo sapiens, UniProt P18507+P28472+Q16445); experiment: Displacement of [3H]-Ro 15-4513 from Homo sapiens (human) recombinant GABAA alpha6beta3gamma2 receptor expressed in Ltk- cells after 1 hr by liquid scintillation counting; assay type: cell-based
[3] = molecular target: T1, GABA-A receptor; alpha-5/beta-3/gamma-2 (Homo sapiens, UniProt P18507+P28472+P31644); experiment: Displacement of [3H]-Ro 15-1788 from Homo sapiens (human) recombinant GABAA alpha5beta3gamma2 receptor expressed in Ltk- cells after 1 hr by liquid scintillation counting; assay type: cell-based
T1 sequence (P18507 whole entry): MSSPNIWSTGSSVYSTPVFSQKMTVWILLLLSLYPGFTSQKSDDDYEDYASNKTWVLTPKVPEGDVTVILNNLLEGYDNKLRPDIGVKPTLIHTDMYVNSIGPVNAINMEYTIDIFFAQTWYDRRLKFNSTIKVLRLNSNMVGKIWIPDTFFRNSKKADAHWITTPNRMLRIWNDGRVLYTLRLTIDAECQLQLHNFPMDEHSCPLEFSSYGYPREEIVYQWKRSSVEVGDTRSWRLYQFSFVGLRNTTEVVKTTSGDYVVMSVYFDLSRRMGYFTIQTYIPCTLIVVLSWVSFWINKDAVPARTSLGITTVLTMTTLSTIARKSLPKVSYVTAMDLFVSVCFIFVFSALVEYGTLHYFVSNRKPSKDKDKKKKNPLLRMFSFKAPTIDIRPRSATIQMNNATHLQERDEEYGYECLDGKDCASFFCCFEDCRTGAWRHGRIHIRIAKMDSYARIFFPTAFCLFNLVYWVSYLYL
T1 sequence (P28472 whole entry): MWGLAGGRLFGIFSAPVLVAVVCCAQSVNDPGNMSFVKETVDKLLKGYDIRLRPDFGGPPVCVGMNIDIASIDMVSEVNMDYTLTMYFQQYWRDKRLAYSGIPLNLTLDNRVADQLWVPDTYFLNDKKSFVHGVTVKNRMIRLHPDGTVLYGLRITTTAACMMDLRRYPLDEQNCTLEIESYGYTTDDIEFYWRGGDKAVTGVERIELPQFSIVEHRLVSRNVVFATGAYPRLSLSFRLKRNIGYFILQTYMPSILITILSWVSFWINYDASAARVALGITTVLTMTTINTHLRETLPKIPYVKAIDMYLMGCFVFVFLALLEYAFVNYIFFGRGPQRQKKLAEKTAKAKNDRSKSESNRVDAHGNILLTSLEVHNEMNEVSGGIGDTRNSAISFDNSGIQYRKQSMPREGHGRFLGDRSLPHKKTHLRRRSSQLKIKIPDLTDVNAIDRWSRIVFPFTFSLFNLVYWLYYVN
T1 sequence (P31644 whole entry): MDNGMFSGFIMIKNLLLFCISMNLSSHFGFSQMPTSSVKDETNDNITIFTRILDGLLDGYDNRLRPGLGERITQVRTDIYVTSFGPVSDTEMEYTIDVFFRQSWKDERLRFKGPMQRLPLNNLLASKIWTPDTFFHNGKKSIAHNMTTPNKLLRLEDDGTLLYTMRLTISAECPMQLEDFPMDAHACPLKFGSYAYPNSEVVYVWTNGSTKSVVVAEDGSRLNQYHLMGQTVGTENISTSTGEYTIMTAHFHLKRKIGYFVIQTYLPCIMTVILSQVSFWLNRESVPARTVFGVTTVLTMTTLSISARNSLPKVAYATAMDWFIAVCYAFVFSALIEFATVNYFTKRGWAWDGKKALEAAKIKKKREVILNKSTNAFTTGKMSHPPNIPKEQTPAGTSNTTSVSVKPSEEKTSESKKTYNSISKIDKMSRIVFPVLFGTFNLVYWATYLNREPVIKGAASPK

[4] = molecular target: GABA A receptor alpha-4/beta-3/gamma-2 (Homo sapiens, UniProt P18507+P28472+P48169); experiment: Displacement of [3H]-Ro 15-4513 from Homo sapiens (human) recombinant GABAA alpha4beta3gamma2 receptor expressed in Ltk- cells after 1 hr by liquid scintillation counting; assay type: cell-based
[5] = molecular target: T2, GABA-A receptor; alpha-3/beta-3/gamma-2 (Homo sapiens, UniProt P18507+P28472+P34903); experiment: Displacement of [3H]-Ro 15-1788 from Homo sapiens (human) recombinant GABAA alpha3beta3gamma2 receptor expressed in Ltk- cells after 1 hr by liquid scintillation counting; assay type: cell-based
T2 sequence (P18507 whole entry): T1 sequence (P18507 whole entry)
T2 sequence (P28472 whole entry): T1 sequence (P28472 whole entry)
T2 sequence (P34903 whole entry): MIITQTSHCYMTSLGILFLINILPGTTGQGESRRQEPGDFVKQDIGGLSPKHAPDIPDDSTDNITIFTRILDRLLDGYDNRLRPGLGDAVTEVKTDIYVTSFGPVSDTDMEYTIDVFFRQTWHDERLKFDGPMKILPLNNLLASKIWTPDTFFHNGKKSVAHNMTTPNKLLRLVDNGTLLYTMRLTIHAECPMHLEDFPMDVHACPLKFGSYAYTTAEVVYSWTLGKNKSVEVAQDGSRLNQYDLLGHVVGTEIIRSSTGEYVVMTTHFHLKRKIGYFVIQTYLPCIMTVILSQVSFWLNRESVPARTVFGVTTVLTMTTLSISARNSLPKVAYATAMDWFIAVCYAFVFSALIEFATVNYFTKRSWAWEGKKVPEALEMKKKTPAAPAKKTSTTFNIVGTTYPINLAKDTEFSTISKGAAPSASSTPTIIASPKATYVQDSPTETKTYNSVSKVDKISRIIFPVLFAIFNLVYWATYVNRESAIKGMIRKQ

[6] = molecular target: T3, GABA-A receptor; alpha-2/beta-3/gamma-2 (Homo sapiens, UniProt P18507+P28472+P47869); experiment: Displacement of [3H]-Ro 15-1788 from Homo sapiens (human) recombinant GABAA alpha2beta3gamma2 receptor expressed in Ltk- cells after 1 hr by liquid scintillation counting; assay type: cell-based
T3 sequence (P18507 whole entry): T1 sequence (P18507 whole entry)
T3 sequence (P28472 whole entry): T1 sequence (P28472 whole entry)
T3 sequence (P47869 whole entry): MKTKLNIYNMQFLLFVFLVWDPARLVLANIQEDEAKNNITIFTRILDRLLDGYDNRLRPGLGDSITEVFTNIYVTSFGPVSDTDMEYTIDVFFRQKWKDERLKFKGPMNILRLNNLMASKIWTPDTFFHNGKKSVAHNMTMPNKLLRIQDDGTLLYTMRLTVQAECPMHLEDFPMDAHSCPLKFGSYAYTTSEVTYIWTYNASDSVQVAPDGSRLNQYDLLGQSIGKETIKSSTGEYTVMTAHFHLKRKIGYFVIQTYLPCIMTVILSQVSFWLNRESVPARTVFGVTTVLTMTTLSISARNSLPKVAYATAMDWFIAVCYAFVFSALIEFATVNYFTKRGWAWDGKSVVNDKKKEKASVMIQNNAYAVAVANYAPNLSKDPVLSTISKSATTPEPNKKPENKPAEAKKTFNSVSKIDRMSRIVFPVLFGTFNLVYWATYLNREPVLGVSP

[7] = molecular target: T4, GABA-A receptor; alpha-1/beta-3/gamma-2 (Homo sapiens, UniProt P14867+P18507+P28472); experiment: Displacement of [3H]-Ro 15-1788 from Homo sapiens (human) recombinant GABAA alpha1beta3gamma2 receptor expressed in Ltk- cells after 1 hr by liquid scintillation counting; assay type: cell-based
T4 sequence (P14867 whole entry): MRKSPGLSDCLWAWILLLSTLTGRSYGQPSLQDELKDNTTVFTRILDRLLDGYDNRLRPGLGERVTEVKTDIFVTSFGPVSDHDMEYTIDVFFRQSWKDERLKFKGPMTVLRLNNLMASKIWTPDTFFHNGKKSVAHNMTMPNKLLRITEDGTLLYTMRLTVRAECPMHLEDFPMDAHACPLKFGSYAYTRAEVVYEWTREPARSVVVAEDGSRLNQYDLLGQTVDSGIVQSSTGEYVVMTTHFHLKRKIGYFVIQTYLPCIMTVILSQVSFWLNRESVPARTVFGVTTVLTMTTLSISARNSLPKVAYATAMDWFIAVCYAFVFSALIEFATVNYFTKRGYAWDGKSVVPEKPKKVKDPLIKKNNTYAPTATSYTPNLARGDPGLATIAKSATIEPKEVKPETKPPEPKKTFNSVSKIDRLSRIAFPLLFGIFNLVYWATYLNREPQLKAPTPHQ
T4 sequence (P18507 whole entry): T1 sequence (P18507 whole entry)
T4 sequence (P28472 whole entry): T1 sequence (P28472 whole entry)

Sequence of GABA A receptor alpha-4/beta-3/gamma-2 (P48169 whole entry, one chain of several): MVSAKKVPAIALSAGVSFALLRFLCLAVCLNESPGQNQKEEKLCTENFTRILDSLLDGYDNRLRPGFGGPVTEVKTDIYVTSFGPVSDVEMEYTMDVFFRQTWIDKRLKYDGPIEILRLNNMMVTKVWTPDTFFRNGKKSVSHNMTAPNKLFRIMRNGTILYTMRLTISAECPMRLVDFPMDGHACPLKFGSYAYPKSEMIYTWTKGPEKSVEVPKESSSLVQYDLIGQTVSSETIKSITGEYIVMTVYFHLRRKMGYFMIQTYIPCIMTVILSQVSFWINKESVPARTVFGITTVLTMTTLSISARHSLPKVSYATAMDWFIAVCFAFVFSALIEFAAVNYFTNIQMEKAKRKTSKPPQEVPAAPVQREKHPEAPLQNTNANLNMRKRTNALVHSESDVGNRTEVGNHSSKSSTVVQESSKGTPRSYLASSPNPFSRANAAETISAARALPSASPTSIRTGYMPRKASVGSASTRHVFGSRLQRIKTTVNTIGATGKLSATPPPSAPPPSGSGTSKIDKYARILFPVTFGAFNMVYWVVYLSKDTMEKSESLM
Sequence of GABA-A receptor; alpha-6/beta-3/gamma-2 (Q16445 whole entry, one chain of several): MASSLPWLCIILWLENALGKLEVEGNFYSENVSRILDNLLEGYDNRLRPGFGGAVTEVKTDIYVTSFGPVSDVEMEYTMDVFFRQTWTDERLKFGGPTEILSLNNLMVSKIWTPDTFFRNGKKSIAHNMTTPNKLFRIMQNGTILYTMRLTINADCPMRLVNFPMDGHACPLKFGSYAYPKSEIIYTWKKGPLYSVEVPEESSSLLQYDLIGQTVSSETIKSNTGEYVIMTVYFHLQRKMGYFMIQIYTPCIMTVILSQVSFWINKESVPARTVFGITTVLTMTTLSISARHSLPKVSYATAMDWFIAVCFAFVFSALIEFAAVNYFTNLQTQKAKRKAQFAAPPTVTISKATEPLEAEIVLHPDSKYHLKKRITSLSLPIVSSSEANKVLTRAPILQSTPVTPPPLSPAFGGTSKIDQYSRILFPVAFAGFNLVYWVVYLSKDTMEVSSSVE

| SMILES | Ratio Ki [1] | pKi [2] | pKi [3] | pKi [4] | pKi [5] | pKi [6] | pKi [7] |
| --- | --- | --- | --- | --- | --- | --- | --- |
| CCOC(=O)c1ncn2c1[C@@H]1CCCN1C(=O)c1cc(Br)ccc1-2 | 49 |  |  |  |  |  |  |
| CCOC(=O)c1ncn2c1[C@@H]1CCCN1C(=O)c1cc(OC)ccc1-2 | 108 |  |  |  |  |  |  |
| C#Cc1ccc2c(c1)C(=O)N1CCC[C@H]1c1c(C(=O)OC(C)(C)C)ncn1-2 |  | 6.51 | 7.40 | 6.67 | < 6.48 | < 6.48 | < 6.48 |
| O=C(OCC(F)(F)F)c1ncn2c1[C@@H]1CCCN1C(=O)c1cc(-c3ccco3)ccc1-2 | 0.71 | 6.60 | 8.00 | 7.29 | 7.28 | 7.26 | 8.15 |
| CC(C)(C)OC(=O)c1ncn2c1[C@@H]1CCCN1C(=O)c1cc(-c3cccs3)ccc1-2 | 1.3 | < 6.48 | 7.92 | 6.92 | 6.91 | 6.92 | 7.80 |
| CC(C)(C)OC(=O)c1ncn2c1[C@@H]1CCCN1C(=O)c1cc(C#C[Si](C)(C)C)ccc1-2 |  | < 6.48 | 6.99 | 6.76 | < 6.48 | < 6.48 | < 6.48 |
| O=C(OCC(F)(F)F)c1ncn2c1[C@@H]1CCCN1C(=O)c1cc(Br)ccc1-2 |  | < 6.48 | 7.24 | 6.54 | 6.61 | < 6.48 | < 6.48 |
| CC(C)(C)OC(=O)c1ncn2c1[C@@H]1CCCN1C(=O)c1cc(Br)ccc1-2 | 37.5 | 7.14 | 8.40 | 7.54 | 7.31 | 6.91 | 6.82 |
| C=Cc1ccc2c(c1)C(=O)N1CCC[C@H]1c1c(C(=O)OC(C)(C)C)ncn1-2 | 20.8 | 7.24 | 8.62 | 7.59 | 7.59 | 7.46 | 7.30 |
| C=Cc1ccc2c(c1)C(=O)N1CCC[C@H]1c1c(C(=O)OCC(F)(F)F)ncn1-2 | 13.6 | 6.53 | 8.16 | 6.76 | 7.19 | 7.26 | 7.03 |
| C#Cc1ccc2c(c1)C(=O)N1CCC[C@H]1c1c(C(=O)OCC(F)(F)F)ncn1-2 | 36 | 6.49 | 8.08 | 6.46 | 6.77 | 6.76 | 6.52 |
| CC(C)(C)OC(=O)c1ncn2c1[C@@H]1CCCN1C(=O)c1cc(-c3ccccc3)ccc1-2 | 2.2 | < 6.48 | 7.89 | 6.94 | 7.23 | 6.89 | 7.55 |
| C#Cc1ccc2c(c1)C(=O)N1CCC[C@H]1c1c(C(=O)OCC)ncn1-2 | 45 |  |  |  |  |  |  |
| CC(C)(C)OC(=O)c1ncn2c1[C@@H]1CCCN1C(=O)c1cc(-c3ccco3)ccc1-2 | 1.1 | 7.34 | 8.77 | 7.94 | 7.81 | 7.79 | 8.74 |
| O=C(OCC(F)(F)F)c1ncn2c1[C@@H]1CCCN1C(=O)c1cc(-c3ccccc3)ccc1-2 |  | < 6.48 | < 6.48 | < 6.48 | < 6.48 | < 6.48 | 6.85 |
| C[Si](C)(C)C#Cc1ccc2c(c1)C(=O)N1CCC[C@H]1c1c(C(=O)OCC(F)(F)F)ncn1-2 |  | < 6.48 | 6.86 | < 6.48 | < 6.48 | < 6.48 | < 6.48 |
| O=C(OCC(F)(F)F)c1ncn2c1[C@@H]1CCCN1C(=O)c1ccccc1-2 | 7.9 | < 6.48 | 8.37 | < 6.48 | 7.89 | 7.47 | 7.47 |
| CCOC(=O)c1ncn2c1[C@@H]1CCCN1C(=O)c1cc(C#C[Si](C)(C)C)ccc1-2 | 50 |  |  |  |  |  |  |
